# Results: article PMC3939009, “Thrombin inhibitory activity of some polyphenolic compounds” (Medicinal Chemistry Research, 2013)
# Like-named read-outs stand apart in the source and are kept apart here.
# Key:
# human thrombin [1] = target: T1, human thrombin (Homo sapiens, UniProt P00734); experiment: Amidolytic activity of thrombin (hydrolysis of chromogenic substrate D-Phe-Pip-Arg-pNA); type: biochemical; design: Thrombin, also known as an active plasma coagulation factor II; purchased Sigma-Aldrich Chemical Co. (St. Louis, MO, USA) T7009; host or cells: purified from human plasma; conditions: at 375 μM substrate concentration; compounds 0.1–1,000 μM, preincubation 10 min 37 °C; read-out: IC50, amidolytic activity of human thrombin
# Description: (§1) All tested compounds were dissolved in 50 % DMSO to the initial concentration of 10 mM; other solutions of compounds were also prepared in 50 % DMSO (prepared in 50 mM TBS, pH 7.4). The final concentration of DMSO in thrombin samples was 5 %. To prepare thrombin control samples, the same volume of solvent (50 % DMSO prepared in 50 mM TBS, pH 7.4) was added as in the case of the compound volume and warmed for 10 min to 37 °C.
# To each reaction well, 40 μl of 3 mM chromogenic substrate was added. To initiate the chromogenic reaction, 280 μl of control thrombin (without tested compounds) or thrombin after preincubation with a polyphenolic compound to every reaction well in the same moment was added. The absorbance value was monitored every 12 s for 10 min. The maximal velocity of the reaction (V max, Δm OD/min) for each absorbance curve was determined. IC50 value (parameter) for every polyphenolic compound from inhibition curves was estimated.
# human thrombin [2] = target: T1, human thrombin; experiment: BIAcore (SPR) analysis of binding to immobilized thrombin; design: Thrombin, also known as an active plasma coagulation factor II; purchased Sigma-Aldrich Chemical Co. (St. Louis, MO, USA) T7009; conditions: for Kd: read-out: K D, equilibrium dissociation constant; for kon: read-out: k a, association rate; for koff: read-out: k d, dissociation rate; for Response (RU): analyte 1,000 μM, thrombin immobilized on CM5 chip
# Description: The biosensor assays were performed using the BIAcore 1000 biosensor system. All biosensor analyses were performed with a phosphate-buffered saline (PBS), pH 7.4, as a running buffer. […] The immobilization of thrombin on a biosensor carboxylmethyl dextran surface was performed according to the BIA applications Handbook (BIAcore, [1994]). The process of protein immobilization was performed on a sensor chip CM5 surface by the positively charged functional groups of protein amino acids. The immobilization process consisted of four steps: preconcentration, activation, ligand immobilization and deactivation of the residual NHS esters. […] The temperature during the whole experiment was also constant and was set to 25.0 °C. […] Each of these solutions (10 μl) was injected into an empty sensor chip channel. […] The amount of injected activation mixture was modified, to regulate the amount of immobilized ligand. […] The conditions of the latter experiments were established by numerous pre-tests. The assessed parameters included: the buffer flow rate, the volume of analyte injection, the concentration of analytes, types and concentration of regenerators. […] For each injection of analyte solution, the volume used was 100 μl. After injection of analyte was completed, the dissociation step occurred and the level of the interaction ligand-analyte was measured. During dissociation, the particles non-covalently bound to the ligand were washed out from the working channel. […] To do these calculations, the formulas presented below were used: the association rate […]]; the dissociation rate -d[AB]/dt=kd·[AB]; the equilibrium constants: KA=[AB]/[A]·[B]=ka/kd KD=[A]·[B]/[AB]=kd/ka.
# human thrombin [3] = target: T1, human thrombin; experiment: SDS-PAGE analysis of thrombin-induced cross-linked fibrin formation; type: biochemical; design: Thrombin, also known as an active plasma coagulation factor II; purchased Sigma-Aldrich Chemical Co. (St. Louis, MO, USA) T7009; host or cells: purified from human plasma; conditions: for Changes in electrophoresis of fibrinogen treated with preincubated thrombin: cyanin 75 and 750 μM, (+)-catechin 125 and 1,000 μM, (−)-epicatechin 150 and 1,000 μM
# Description: as §1, with “In these preparations, to nine volumes of thrombin one volume of polyphenolic compounds was added (final thrombin concentration was 15.8 nM). All” for “All”
# The reactions incubated at 37 °C were stopped after 5, 15 and 30 min by adding 150 μl of lysis buffer (0.125 M Tris/HCl, 4 % SDS, 8 M urea, 10 % β-mercaptoethanol, pH 6.8). Samples were subjected to SDS-PAGE (polyacrylamide concentration—7.5 %) using Mini-Protean Electrophoresis Cell (Bio-Rad, Hercules, CA). Proteins were stained with Coomassie Brilliant Blue R250 (CBB).
# human thrombin [4] = target: T1, human thrombin; experiment: Analysis of thrombin inhibition parameters (Lineweaver–Burk curves); type: biochemical; design: Thrombin, also known as an active plasma coagulation factor II; purchased Sigma-Aldrich Chemical Co. (St. Louis, MO, USA) T7009; conditions: for k cat: compound at IC50 concentration, k cat = V max/E 0, control 29.1; for Type of inhibition: from Lineweaver–Burk curves; for V max of chromogenic substrate hydrolysis by thrombin / K m of chromogenic substrate hydrolysis by thrombin: thrombin incubated with compound at IC50 concentration; for V max of chromogenic substrate hydrolysis by thrombin: control 30.7; for K m of chromogenic substrate hydrolysis by thrombin: control 158.7
# Description: Absorbance was monitored every 12 s for 10 min in a 96-well microplate reader. The velocity of reaction was expressed as the increase in product (pNA) over time (∆ μmol/min) using a computer program Mikcroplate Manager® 8 and the extinction coefficient of p-nitroaniline. […] Then, the Lineweaver–Burk ([1934]) curves for thrombin in the presence and in the absence of polyphenol compounds were plotted. The Lineweaver–Burk equation, which is a transformation of the Michaelis–Menten model, looks as follows: 1/V=Km/Vmax·1/[S]+1/Vmax
# human thrombin [5] = target: T1, human thrombin; experiment: Thrombin-induced fibrinogen polymerization; type: biochemical; design: Thrombin, also known as an active plasma coagulation factor II; purchased Sigma-Aldrich Chemical Co. (St. Louis, MO, USA) T7009; conditions: thrombin preincubated with compound; for Effect on thrombin ability to induce fibrinogen polymerization: 10 min 37 °C
# Description: In these preparations, to nine volumes of thrombin one volume of polyphenolic compounds was added (final thrombin concentration was 15.8 nM). All tested compounds were dissolved in 50 % DMSO to the initial concentration of 10 mM; other solutions of compounds were also prepared in 50 % DMSO (prepared in 50 mM TBS, pH 7.4). […] Polymerization of fibrin was monitored at 595 nm using a 96-well microtiter plate reader. To each reaction well of the microtiter plate, 100 μl of fibrinogen (3 mg/ml) in 50 mM TBS and 5 mM CaCl2, pH 7.4, were added. […] The maximal velocity of the polymerization process (V max, Δm OD/min) for each absorbance curve was determined (Nowak et al., [2007]).
# human thrombin [6] = experiment: Thrombin-induced platelet aggregation (turbidimetric); type: cell-based; conditions: for Effect on thrombin ability to stimulate platelet aggregation: compound preincubated with thrombin
# Description: Blood samples in 0.32 % sodium citrate from healthy volunteers without cardiovascular disorders were collected, untreated with antiplatelet drugs. […] Platelets were isolated from PRP using BSA–Sepharose 2B gel filtration method according to Walkowiak et al. ([2000]). […] In these preparations, to nine volumes of thrombin one volume of polyphenolic compounds was added (final thrombin concentration was 15.8 nM). All tested compounds were dissolved in 50 % DMSO to the initial concentration of 10 mM; other solutions of compounds were also prepared in 50 % DMSO (prepared in 50 mM TBS, pH 7.4). […] The platelet aggregation was measured by turbidimetric method (Saluk-Juszczak et al., [2007]) using dual-channel Chrono-log optical aggregometer (Chronolog, USA). […] Platelet suspensions were pre-warmed at 37 °C with stirring.
IC50 (human thrombin [1]) [µM],"K A, equilibrium association constant (human thrombin [2]) [M^–1]","K A, equilibrium association constant (human thrombin [2]; 5 sensorgrams, 50 to 1,000 μM) [M⁻¹]","Kd (human thrombin [2]; 5 sensorgrams, 50 to 1,000 μM) [µM]","kon (human thrombin [2]; 5 sensorgrams, 50 to 1,000 μM) [M⁻¹ s⁻¹]","koff (human thrombin [2]; 5 sensorgrams, 50 to 1,000 μM) [s⁻¹]",Response (RU) (human thrombin [2]),Changes in electrophoresis of fibrinogen treated with preincubated thrombin (human thrombin [3]),k cat (human thrombin [4]) [s⁻¹],Type of inhibition (human thrombin [4]),V max of chromogenic substrate hydrolysis by thrombin (human thrombin [4]),K m of chromogenic substrate hydrolysis by thrombin (human thrombin [4]),Concentration causing total inhibition of thrombin activity (fibrin polymerization) (human thrombin [5]; Vmax of fibrinogen polymerization at 595 nm),SMILES,Effect on thrombin ability to induce fibrinogen polymerization (human thrombin [5]),Effect on thrombin ability to stimulate platelet aggregation (human thrombin [6]),"Effect on formation of γ–γ chains and α-polymers (human thrombin [3]; ten times IC50: cyanidin […], quercetin 15 μM, silybin 250 μM)","Platelet aggregation, % of control (human thrombin [6]; compound 1,000 μM preincubated with thrombin) [%]"
75,115,115,8630,0.95,0.00824,827 RU,no changes were observed,19.7,mixed type of inhibition,20.8 10^−6 mol/min,344.6 10^−6 M,,"OC[C@H]1O[C@@H](Oc2cc3c(O[C@@H]4O[C@H](CO)[C@@H](O)[C@H](O)[C@H]4O)cc(O)cc3[o+]c2-c2ccc(O)c(O)c2)[C@H](O)[C@@H](O)[C@@H]1O [Cyanin, cyanin]",inhibitory effect of polymerization of human fibrinogen was not observed,no effect on thrombin ability to stimulate platelets aggregation,,
25,,53900,18.6,7.11,0.000132,"1,424 RU",,25.6,competitive inhibitors,27 10^−6 mol/min,550.5 10^−6 M,"> 1,000 μM","COc1cc(C2Oc3cc([C@H]4Oc5cc(O)cc(O)c5C(=O)[C@@H]4O)ccc3OC2CO)ccc1O (stereo in doubt) [Silybin, silybin]",inhibition of thrombin ability to induce fibrinogen polymerization,,slightly reduced the formation of γ–γ chains and α-polymers,43
150,192,192,5190,4.37,0.0227,431 RU,no changes were observed,27.8,competitive inhibitors,29.4 10^−6 mol/min,481.5 10^−6 M,,"Oc1cc(O)c2c(c1)O[C@H](c1ccc(O)c(O)c1)[C@H](O)C2 [(−)-Epicatechin, (−)-epicatechin]",inhibitory effect of polymerization of human fibrinogen was not observed,no effect on thrombin ability to stimulate platelets aggregation,,
